# Measurements published in patent publication US4680311A, “Method for the treatment of systemic mycosis” (Taisho Pharmaceutical Co., Ltd., priority 1985, dated 1987).
# Like-named read-outs stand apart in the source and are kept apart here.
# Assays:
# [1] = test system: Candida albicans TIMM 0239; test: Test Example 1: survival of mice with systemic Candida albicans infection; type: in vivo, Candida albicans TIMM 0239 in female SPF Crj:CD-1 (ICR) mice; conditions: for Survival rate: 50 mg/kg once daily, 5 days, observed 10 days postinfection, control 0/8
# Method: (§1) Female SPF mice Crj:CD-1 (ICR) strain, 4 weeks of age, weighing 18 g±1 g, were used as test animals. One loopful organisms of Candida albicans TIMM 0239 grown on Sabouraud's glucose agar slants were inoculated into Sabouraud's glucose broth containing 0.5% yeast extract. Then cultures were grown aerobically at 37° C. for 18 hours. The organisms were harvested from the cultures, washed twice with sterilized physiological saline, and finally suspended in saline. A total number of organisms was counted in a Burker-Turk hemocytometer. Thus prepared cell suspension was adjusted to contain 10^6 cells/ml, 0.2 ml of which was then injected into the tail vein in each mouse. Infected mice were allocated randomly to different groups. Each group consisted of eight mice.
# (§2) (S)-2-amino-5-hydroxy-4-oxopentanoicacid was dissolved in sterilized physiological saline. The mice in the treated groups received the solution of this compound in a dose of 50 mg per kg mouse body weight once daily via an intravenous, subcutaneous, intraperitoneal or oral route for 5 consecutive days, starting on the day of infection. The first treatment was given immediately after a challenge of Candida albicans. The untreated control animals were intravenously given the same volume of saline in place of the test compound solution. The animals were observed daily for 10 days postinfection.
# [2] = test system: fungi; conditions: A. Miyake, Chem. Pharm. Bull., 8, 1071 (1960); cited from earlier work
# [3] = Acute toxicity in mice; type: in vivo; conditions: mouse, in vivo, mice
# Text: (§3) This finding leads the inventors to possible usefulness of this substance for the therapy of human cases of candidiasis and other systemic mycoses. This substance is an extremely specific antimycotic agent in that it quite differs in chemical structure from any existing antimycotic agents.
# [4] = test system: mice; test: Acute toxicity in mice; type: in vivo
# Text: as §3
# [5] = test system: pathogenic human tubercle bacilli; conditions: A. Miyake, Chem. Pharm. Bull., 8, 1071 (1960); cited from earlier work
# [6] = test system: Candida albicans; test: protective and therapeutic efficacy in mice experimentally infected with Candida albicans; type: in vivo
# Method: as §1
# as §2, with “postinfection. […]” for “postinfection.”
# [7] = test system: Candida albicans; type: in vivo, Candida albicans TIMM 0239 in female SPF Crj:CD-1 (ICR) mice; conditions: for Survival rate / Average viable counts recovered (per mouse): twice daily, 14 days; for Survival rate: control 0/5; for Average viable counts recovered (per mouse): kidneys, control 4.87 × 10^7
# Method: as §1, §2
# The same experimental conditions as for Test Example 1 were employed, except that all groups of five animals were infected with 1.0×10^6 organisms and treated with either 25, 50 or 100 mg/kg of the test compound twice daily for 14 consecutive days. Duration of observation period was two weeks after infection.
# The criteria to evaluate efficacy of the test compound include survival rate and viable counts of Candida albicans recovered from the kidneys of infected animals. Both kidneys were excised from all the animals at the end of the experimental period, homogenized and cultured on Sabouraud's glucose agar plates for assay of viable counts.
compound,measurement,setting,value
N[C@@H](CC(=O)CO)C(=O)O [(S)-2-amino-5-hydroxy-4-oxopentanoicacid],Survival rate,[1]; intraperitoneal,0/8
same,Survival rate,[1]; intravenous,4/8
same,Survival rate,[1]; oral,4/8
same,Survival rate,[1]; subcutaneous,0/8
same,therapeutic efficacy,"[1]; especially by intravenous or oral route, murine systemic candidiasis",significant therapeutic efficacy
same,in vitro antimycotic activity,[2],does hardly exert an in vitro antimycotic activity
same,LD50,[3]; ip,≥ 5000 mg/kg
same,LD50,[3]; po,≥ 6000 mg/kg
same,LD50,[3]; sc,≥ 5000 mg/kg
same,toxicity compared with existing antimycotic drugs,"[4]; acute toxicity, mice",lower than that of any existing antimycotic drugs
same,tolerability in experimental animals,"[4]; mouse, in vivo",very high tolerability
same,activity against pathogenic human tubercle bacilli,[5],highly active
same,protective and therapeutic efficacy,[6],significant protective and therapeutic efficacy
same,Survival rate,[7]; 25 mg/kg oral,1/5
same,Survival rate,[7]; 50 mg/kg oral,2/5
same,Survival rate,[7]; 100 mg/kg oral,5/5
same,Average viable counts recovered (per mouse),[7]; 25 mg/kg oral,1.45 × 10^7 per mouse
same,Average viable counts recovered (per mouse),[7]; 50 mg/kg oral,1.41 × 10^6 per mouse
same,Average viable counts recovered (per mouse),[7]; 100 mg/kg oral,2.41 × 10^5 per mouse
same,correlation between therapeutic efficacy and oral dose,"[7]; oral, 25, 50 or 100 mg/kg",close correlation
